Laboratory results as given in US20250289789A1, “REVERSIBLE LYSINE COVALENT MODIFIERS OF CDK2 AND USES THEREOF” (Terremoto Biosciences, Inc., priority 2023, published 2025).
Read-outs that look alike come from different tables or passages of the source.

Tests used:
Assay type in all cases: cell-based
[1] = molecular target: T1, CDK2-NanoLuc fusion with CCNE1 in 293T or 293 cells (Homo sapiens, UniProt P24941); test: NanoBRET Target Engagement (TE) Intracellular Kinase Assay, CDK2/CCNE1; conditions: NanoBRET TE intracellular kinase assay, 2-hour incubation, read-out: NanoBRET-CDK2/E1 IC50
T1 construct: host or cells: 293T (ATCC CRL-3216) or 293 (ATCC CRL-1573)
Experimental: (§1) Inhibitory effects of compounds were measured in NanoBRET TE Intracellular Kinase Assay. […] Cells were co-transfected with 1 μg/mL of CDK-NanoLuc Fusion Vector (Promega; NV2701 for CDK1, NV2781 for CDK2, NV2811 for CDK4, NV2841 for CDK6) and 1 μg/mL of the corresponding Cyclin Expression Vector (Promega; NV2601 for CCNB1, NV2641 for CCNE1, NV2621 for CCND1, NV2631 for CCND3) using FuGENE HD Transfection Reagent (Promega; E2311). […] 20 uL/well of 3× Intracellular TE Nano-Glo Substrate/Inhibitor (Promega; N2162) were added to 384-well plates and incubated for 3 minutes at room temperature. NanoBRET signals (donor emission wavelength at 450 nm, acceptor emission wavelength at 610 nm) were measured using Envision plate reader (PerkinElmer). NanoBRET ratio was calculated by: BRET Ratio=raw signal for acceptor/raw signal for donor. Dose response curve normalized to DMSO control was plotted using four-parameter logistic model for IC50 calculation.

[2] = system: Phospho-Rb Ser807/811 in OVCAR3 cells; test: OVCAR3 Phospho-Rb Ser807/811 HTRF assay; conditions: OVCAR3 cells, Phospho-Rb Ser807/811 HTRF, 1 hour incubation, read-out: pRb-OVCAR3 IC50
Experimental: Cells were trypsinized and resuspended in 1 mM hydroxyurea (Sigma; H8627), 90% RPMI and 10% fetal bovine serum. […] Dose response curve normalized to DMSO control was plotted using four-parameter logistic model for IC50 calculation.

[3] = molecular target: T2, CDK4-NanoLuc fusion with CCND1 in 293T or 293 cells (Homo sapiens, UniProt P11802); test: NanoBRET Target Engagement (TE) Intracellular Kinase Assay, CDK4/CCND1; conditions: NanoBRET TE intracellular kinase assay, 2-hour incubation, read-out: NanoBRET-CDK4/D1 IC50
T2 construct: host or cells: 293T (ATCC CRL-3216) or 293 (ATCC CRL-1573)
Experimental: as §1

T2 sequence (P11802 whole entry, the tested form may be a part): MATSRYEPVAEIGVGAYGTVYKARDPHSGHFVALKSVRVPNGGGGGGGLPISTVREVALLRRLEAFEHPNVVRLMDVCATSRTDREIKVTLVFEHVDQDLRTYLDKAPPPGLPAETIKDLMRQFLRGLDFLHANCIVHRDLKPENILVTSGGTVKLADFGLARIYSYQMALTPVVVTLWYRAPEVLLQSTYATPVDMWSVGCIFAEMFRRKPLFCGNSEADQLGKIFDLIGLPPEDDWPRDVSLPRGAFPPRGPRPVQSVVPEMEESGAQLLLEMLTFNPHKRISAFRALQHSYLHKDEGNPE
T2 sequence (P24385 whole entry partner, the tested form may be a part): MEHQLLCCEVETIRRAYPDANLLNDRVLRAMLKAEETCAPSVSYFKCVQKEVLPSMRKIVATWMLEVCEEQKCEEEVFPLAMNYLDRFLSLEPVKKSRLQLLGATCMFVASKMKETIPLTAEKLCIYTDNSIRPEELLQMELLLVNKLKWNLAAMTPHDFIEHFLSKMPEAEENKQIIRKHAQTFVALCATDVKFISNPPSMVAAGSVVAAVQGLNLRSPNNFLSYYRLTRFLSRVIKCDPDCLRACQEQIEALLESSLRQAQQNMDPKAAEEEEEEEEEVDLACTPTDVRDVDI

IC50 [1] [nM]	IC50 [2] [nM]	IC50 [3] [nM]	IC50 ([2]; Homo sapiens, OVCAR-3, 1 h) [nM]	SMILES
4.85	27.3	1200		COc1cc(O)c(C=O)c(OCC(=O)Nc2cc([C@H]3CC[C@@H](OC(=O)NC4(C)CC4(F)F)C3)[nH]n2)c1 (single isomer, unassigned) [Compound 281, (1R,3S)-3-(3-(2-(2-formyl-3-hydroxy-5-methoxyphenoxy)acetamido)-1H-pyrazol-5-yl)cyclopentyl ((*)-2,2-difluoro-1-methylcyclopropyl)carbamate]
5.09		> 10000	31.6	CCNN(C)C(=O)O[C@@H]1CC[C@H](c2cc(NC(=O)COc3cc(OC)cc(O)c3C=O)n[nH]2)C1 [Compound 276, (1R,3S)-3-(3-(2-(2-formyl-3-hydroxy-5-methoxyphenoxy)acetamido)-1H-pyrazol-5-yl)cyclopentyl 2-ethyl-1-methylhydrazine-1-carboxylate]
21.8	5230	266		COc1cc(O)c(C=O)c2c1CC(C(=O)Nc1cc([C@H]3CC[C@@H](OC(=O)N4CCCCN4C)C3)[nH]n1)C2 (single isomer, unassigned) [Compound 267, (1R,3S)-3-(3-((*)-4-formyl-5-hydroxy-7-methoxy-2,3-dihydro-1H-indene-2-carboxamido)-1H-pyrazol-5-yl)cyclopentyl 2-methyltetrahydropyridazine-1(2H)-carboxylate]
2.62		2570	27	COc1cc(O)c(C=O)c(OCC(=O)Nc2cc([C@H]3CC[C@@H](OC(=O)N4[C@H](C)C[C@@H]4C)C3)[nH]n2)c1 [Compound 123]
55.4		6480	101	COc1cc(O)c(C=O)c(OCC(=O)Nc2cc([C@H]3CC[C@@H](OC(=O)N4C[C@H]5C[C@@H]4CS5(=O)=O)C3)n[nH]2)c1 [Compound 118]
445		> 10000	363	COc1cc(O)c(C=O)c(OCC(=O)Nc2cc([C@H]3CC[C@@H](OC(=O)NC4CN(C)C4)C3)[nH]n2)c1 [Compound 185]
3.06		6040	70.6	COc1cc(O)c(C=O)c(OCC(=O)Nc2cc([C@H]3CC[C@@H](OC(=O)NCc4ccccc4)C3)[nH]n2)c1 [Compound 170]
2.45		3270	29.2	CCC[C@H](C)NC(=O)O[C@@H]1CC[C@H](c2cc(NC(=O)COc3cc(OC)cc(O)c3C=O)n[nH]2)C1 [Compound 168]
3.17		> 10000	29.3	COCC[C@H](C)NC(=O)O[C@@H]1CC[C@H](c2cc(NC(=O)COc3cc(OC)cc(O)c3C=O)n[nH]2)C1 [Compound 177]
5.58		3900	24.4	COc1cc(O)c(C=O)c(OCC(=O)Nc2cc([C@H]3CC[C@@H](OC(=O)N4C[C@H]5CC[C@@H]4CO5)C3)[nH]n2)c1 [Compound 158]
2.38		5820	29.5	COc1cc(O)c(C=O)c(OCC(=O)Nc2cc([C@H]3CC[C@@H](OC(=O)N4NC5CCC4C5)C3)[nH]n2)c1 (stereo partly drawn) [Compound 273, (1R,3S)-3-(3-(2-(2-formyl-3-hydroxy-5-methoxyphenoxy)acetamido)-1H-pyrazol-5-yl)cyclopentyl 2,3-diazabicyclo[2.2.1]heptane-2-carboxylate]
3.25		697	12.5	COc1cc(O)c(C=O)c(OCC(=O)Nc2cc([C@H]3CC[C@@H](OC(=O)N4CCC[C@H](C#N)C4)C3)[nH]n2)c1 [Compound 131, (1R,3S)-3-{5-[2-(2-formyl-3-hydroxy-5-methoxyphenoxy)acetamido]-2H-pyrazol-3-yl}cyclopentyl (3S)-3-cyanopiperidine-1-carboxylate]
14.1		> 10000	115	COc1cc(O)c(C=O)c(OCC(=O)Nc2cc([C@H]3CC[C@@H](OC(=O)NCC4COC4)C3)[nH]n2)c1 [Compound 179]
2.27		3890	148	COc1cc(O)c(C=O)c(OCC(=O)Nc2cc([C@H]3CC[C@@H](OC(=O)N[C@H]4C[C@@H](C)C4)C3)[nH]n2)c1 [Compound 150]
3.09		3470	37.4	Cc1cc(O)c(C=O)c(OCC(=O)Nc2cc([C@H]3CC[C@@H](OC(=O)N4CCC4(C)C)C3)[nH]n2)c1 [Compound 162]
7.65		6300	23.5	COc1cc(O)c(C=O)c(OCC(=O)Nc2cc([C@H]3CC[C@@H](OC(=O)N(C)CCC#N)C3)[nH]n2)c1 [Compound 155]
12.8		7920	383	COc1cc(O)c(C=O)c(OCC(=O)Nc2cc([C@H]3CC[C@@H](OC(=O)Nc4ccncc4)C3)[nH]n2)c1 [Compound 165]
2.11		8440	16.9	COc1cc(O)c(C=O)c(OCC(=O)Nc2cc([C@H]3CC[C@@H](OC(=O)NCCC(F)(F)F)C3)[nH]n2)c1 [Compound 175]
8.02		4160	35	COc1cc(O)c(C=O)c(OCC(=O)Nc2cc([C@H]3CC[C@@H](OC(=O)N4C5CC4CN(C)C5)C3)[nH]n2)c1 [Compound 190]
10.1		> 10000	33.8	COc1cc(O)c(C=O)c(OCC(=O)Nc2cc([C@H]3CC[C@@H](OC(=O)NCCCC#N)C3)[nH]n2)c1 [Compound 156]
3.24		> 10000	107	COc1cc(O)c(C=O)c(OCC(=O)Nc2cc([C@H]3CC[C@@H](OC(=O)N(OC)C(C)C)C3)[nH]n2)c1 [Compound 171]
1.99		2580	37.7	COc1cc(O)c(C=O)c(OCC(=O)Nc2cc([C@H]3CC[C@@H](OC(=O)N4C[C@@H](F)[C@H](F)C4)C3)n[nH]2)c1 [Compound 124]
3.26		668	10.7	COc1cc(O)c(C=O)c2c1C[C@@H](C(=O)Nc1cc([C@H]3CC[C@@H](OC(=O)NC(C)C)C3)[nH]n1)C2 [Compound 174, (1R,3S)-3-(3-((S)-4-formyl-5-hydroxy-7-methoxy-2,3-dihydro-1H-indene-2-carboxamido)-1H-pyrazol-5-yl)cyclopentyl isopropylcarbamate]
13.1		> 10000	49.7	COc1cc(O)c(C=O)c(OCC(=O)Nc2cc([C@H]3CC[C@@H](OC(=O)N4CC(C#N)C4)C3)[nH]n2)c1 [Compound 153]
3.69		864	24.9	COc1cc(O)c(C=O)c(O[C@H](C)C(=O)Nc2cc([C@H]3CC[C@@H](OC(=O)NC4(C)CC4)C3)[nH]n2)c1 [Compound 130, (1R,3S)-3-(3-((R)-2-(2-formyl-3-hydroxy-5-methoxyphenoxy)propanamido)-1H-pyrazol-5-yl)cyclopentyl (1-methylcyclopropyl)carbamate]
1.5		1450	20.6	CC[C@H](C)NC(=O)O[C@@H]1CC[C@H](c2cc(NC(=O)COc3cc(OC)cc(O)c3C=O)n[nH]2)C1 [Compound 184]
6.24		> 10000	66.1	CCCNC(=O)O[C@H]1C[C@@H](c2cc(NC(=O)COc3cc(OC)cc(O)c3C=O)n[nH]2)C1 [Compound 182, (1s,3s)-3-(3-(2-(2-formyl-3-hydroxy-5-methoxyphenoxy)acetamido)-1H-pyrazol-5-yl)cyclobutyl propylcarbamate]
1.87		5500	100	CCc1cc(O)c(C=O)c(OCC(=O)Nc2cc([C@H]3CC[C@@H](OC(=O)NC4(C)CC4)C3)[nH]n2)c1 [Compound 141]
3.41		> 10000	92.7	CCCONC(=O)O[C@@H]1CC[C@H](c2cc(NC(=O)COc3cc(OC)cc(O)c3C=O)n[nH]2)C1 [Compound 135]

SMILES	IC50 [1] [nM]	IC50 [2] [nM]	IC50 [3] [nM]	IC50 ([2]; Homo sapiens, OVCAR-3, 1 h) [nM]
COc1cc(O)c(C=O)c(OCC(=O)Nc2cc([C@H]3CC[C@@H](OC(=O)N4[C@@H]5CC[C@H]4C[C@H](C#N)C5)C3)[nH]n2)c1 [Compound 154]	7.73		2100	27.8
Cc1cc(O)c(C=O)c(OCC(=O)Nc2cc([C@H]3CC[C@@H](OC(=O)N4C5CCC4CC5)C3)[nH]n2)c1 [Compound 161]	2.79		7360	68.6
O=Cc1c(O)cc(OC(F)F)cc1OCC(=O)Nc1cc([C@H]2CC[C@@H](OC(=O)N3C4COCC3C4)C2)[nH]n1 [Compound 186]	22		6580	105
